# According to ChEMBL document CHEMBL3351835, “Anti-inflammatory diterpenoids from the root bark of Acanthopanax gracilistylus” (J Nat Prod, 2014):
# Tests used:
# Format in all cases: functional, cell-based
# [1] = system: PBMC; experiment: Antiinflammatory activity in human PBMC assessed as inhibition of LPS-induced IL-1beta expression pretreated 1 hr before LPS challenge followed by incubated for 16 hrs by flow cytometry
# [2] = system: PBMC; experiment: Antiinflammatory activity in human PBMC assessed as inhibition of LPS-induced TNFalpha expression pretreated 1 hr before LPS challenge followed by incubated for 16 hrs by flow cytometry
# [3] = system: PBMC; experiment: Antiinflammatory activity in human PBMC assessed as inhibition of LPS-induced IL-8 expression pretreated 1 hr before LPS challenge followed by incubated for 16 hrs by flow cytometry
smiles,measurement,setting,value
Cc1cc(O)c2c(c1O)C(=O)C[C@@H]1[C@](C)(C(=O)O)CCC[C@@]21C,IC50,[1],> 10000 nM
same,IC50,[2],8 nM
same,IC50,[3],> 10000 nM
C[C@@]12CCC[C@@](C)(C(=O)O)[C@H]1CC(=O)[C@]13C[C@@H](CO)[C@H](CC[C@H]12)C3,IC50,[1],100 nM
same,IC50,[2],100 nM
same,IC50,[3],> 10000 nM
C[C@@]12CCC[C@@](C)(C(=O)O)[C@H]1CC[C@]13C=C(CO)[C@H](CC[C@H]12)C3,IC50,[1],800 nM
same,IC50,[2],10 nM
same,IC50,[3],> 10000 nM
C[C@@]12CCC[C@@](C)(C(=O)O)[C@H]1CC[C@@]13C[C@@H](CC[C@@H]21)[C@]1(CO)O[C@H]31,IC50,[1],100 nM
same,IC50,[2],60 nM
same,IC50,[3],> 10000 nM
C[C@@]12CCC[C@@](C)(C(=O)O)[C@H]1CC(=O)[C@@]13C[C@@H](CC[C@H]12)[C@H](O)C3,IC50,[1],4 nM
same,IC50,[2],20 nM
same,IC50,[3],> 10000 nM
C[C@@]12CCC[C@@](C)(C(=O)O)[C@H]1CC(=O)[C@]13CC(=O)[C@H](CC[C@H]12)C3,IC50,[1],1 nM
same,IC50,[2],2 nM
same,IC50,[3],> 10000 nM
C[C@]12CCC3=C(CC[C@@H]4[C@](C)(C(=O)O)CCC[C@@]34C)[C@H]1OC[C@@H]2O,IC50,[1],> 10000 nM
same,IC50,[2],> 10000 nM
same,IC50,[3],1 nM
C[C@@]12CCC[C@@](C)(C(=O)O)[C@H]1CC[C@]13C=C(C(=O)O)[C@H](CC[C@H]12)C3,IC50,[1],7500 nM
same,IC50,[2],2100 nM
same,IC50,[3],3 nM
C=C1C[C@@]23CC[C@H]4[C@@](C)(CCC[C@@]4(C)C(=O)O)[C@@H]2CC[C@@H]1C3 [KAURENOIC ACID],IC50,[1],10 nM
same,IC50,[2],2 nM
same,IC50,[3],7700 nM
COC(=O)[C@]1(C)CCC[C@@]2(C)[C@@H]3CC[C@@H]4C[C@]3(C=C4C=O)CC[C@@H]21,IC50,[1],5 nM
same,IC50,[2],400 nM
same,IC50,[3],6 nM
C=C[C@]1(C)C=C2C(=O)C[C@H]3[C@@](C)(CCC[C@@]3(C)C(=O)O)[C@@H]2CC1,IC50,[1],30 nM
same,IC50,[2],7 nM
same,IC50,[3],> 10000 nM
C[C@@H]1C[C@H]2[C@@H]3CCC4=CC(=O)C=C[C@]4(C)[C@@]3(F)[C@@H](O)C[C@]2(C)[C@@]1(O)C(=O)CO [DEXAMETHASONE],IC50,[1],8 nM
same,IC50,[2],2 nM
same,IC50,[3],9 nM
